According to US20250269050A1, “CYCLIC DICHALCOGENIDE ADC LINKER UNITS AND USES THEREOF” (priority 2024, published 2025):

What was measured:
[1] = In vivo pharmacokinetics experiment in mice (intact immunoconjugate in plasma, MS-based); settings: single 7 mg/kg intravenous injection, plasma up to 380 h, FIG. 3
Method: Mice are maintained in individually ventilated cages at constant temperature (22±2° C., air-conditioned) and humidity (45-65%), under optimum hygienic conditions with 10-15 air changes per hour. A cycle of 12 h artificial fluorescent lightning and 12 h darkness is applied and animal behavior is monitored daily throughout the study. The mice receive food and water ad libitum.
To study the in vivo disposition of molecules of the invention mice are treated once with 6, 7 or commercial Trodelvy® at a dose of 7 mg/kg by intravenous injection. Plasma samples are collected at the following time points: predose, postdose: 2 min, 6 h, 24 h, 48 h, 72 h, 168 h, 240 h, and 380 h. All samples are analyzed using an MS-based analytical method for quantification of the intact immunoconjugates and of the free molecular cargo in the mouse plasma.

[2] = tested on: Trop-2-positive breast cancer cancer cell line; assay: Anti-cancer efficacy study in mice, Trop-2-positive cancer model; assay type: in vivo; settings: single treatment at day 7, 3 mg/kg intravenous

With Trodelvy® the “intact immunoconjugate in mouse plasma over time” value [1] was “fast and significant loss of intact immunoconjugate”, the “tumor growth compared to the vehicle group” value ([2]; FIG. 4) was “strong suppression of tumor growth” and the “duration of tumor response” value ([2]; up to day 57, FIG. 4) was “tumors significantly start to grow again after day 30”.
